# Target: T1, M75 epitope of immobilized GST-MN (Homo sapiens, UniProt Q16790)
# T1 construct: made in house; host or cells: bacteria
# Experiment: Competition ELISA, peptides binding to the epitope of immobilized GST-MN (Figure 4A)
# Details: nonapeptides 7 + 2 aa, C-terminal alanine amide
row,Substance,activity in competition ELISA of phage display-selected peptides (in words)
1,"3: ASASAPVSA, selected from phage display library on peptide F, eluted with M75 [compound 3]",marginally posi- tive
2,"2: AITFNAQYA, selected from phage display library on peptide F, eluted with M75 [compound 2]",highest activity
3,"1: AKKMKRRKA, selected from phage display library on peptide F, eluted with M75 [compound 1]",less active

# Test system: mAb M75
# Experiment: Competition ELISA with mAb M75 (antigen competing for M75, Figure 3)
# Format: binding
# Details: GST-MN 10 ng ml-1 adsorbed; mAb M75 ascites fluid final dilution 10-6; antibody + antigen mixtures adsorbed 1.5 h; peroxidase/OPD read-out
row,Substance,50% inhibition concentration in competition ELISA with M75 [ng/mL]
1,F: EDPPGEEDLPGEEDLPGEEDLPEVC (aa 75-98 of the PG region),1
2,D: GGSSGEDDPLGEEDLPSEEDSPC (aa 51-72 of the PG region),1

# Same assay, conditions: GST-MN adsorbed; mAb M75 ascites 10-6
row,Substance,serological activity in competition ELISA with M75 (in words)
1,N: oligopeptide 7 + 2 aa APGEEDLPA,minimum serologically active sequence
2,EVKPKSEEEGSLKLE [Peptide G],inactive

# Same assay, conditions: compared with peptides D and F (50% inhibition at 1 ng ml-1)
row,Substance,fold less active than peptides D and F in competition ELISA [x]
1,GEEDLPSEEDSPREEDPPGEEDLPGEC [Peptide E],1000

# Same assay, conditions: peptide at 100 g ml-1 (so in the source); C-terminal amide
row,Substance,competition in ELISA with M75 at 100 g ml-1
1,AGEEDLPA [6 + 2 aa permutation],negative
2,ADLPGEEDA [oligopeptide 7 + 2 aa],negative
3,ALPGEEDA [6 + 2 aa permutation],negative
4,ADLPGEEA [6 + 2 aa permutation],negative
5,APGEEDLA [6 + 2 aa permutation],negative
6,AEDLPGEA [6 + 2 aa permutation],negative
7,ALPGEEDLA [oligopeptide 7 + 2 aa],negative
8,AEEDLPGEA [oligopeptide 7 + 2 aa],negative
9,AEEDLPGA [6 + 2 aa permutation],negative
10,AEDLPGEEA [oligopeptide 7 + 2 aa],negative

# Test system: adhesion of CGL1 cells to MN/CA IX
# Experiment: Inhibition of cell adhesion to MN/CA IX dots by oligopeptides added to the media with the cell suspension (Figure 4B)
# Format: cell-based, human
# Details: nonapeptides 7 + 2 aa, C-terminal alanine amide, absorbance at 630 nm of stained attached cells
row,Substance,activity in cell adhesion inhibition of phage display-selected peptides (in words)
1,"3: ASASAPVSA, selected from phage display library on peptide F, eluted with M75 [compound 3]",marginally posi- tive only in ELISA
2,"2: AITFNAQYA, selected from phage display library on peptide F, eluted with M75 [compound 2]",highest activity
3,"1: AKKMKRRKA, selected from phage display library on peptide F, eluted with M75 [compound 1]",less active

# Source: paper PMC2363230, “Human tumour-associated cell adhesion protein MN/CA IX: identification of M75 epitope and of the region mediating cell adhesion” (British Journal of Cancer, 2000)
